The values below come from US8293705B2, “HCV protease inhibitors and uses thereof” (Avila Therapeutics, Inc., priority 2007, dated 2012).

Several values for one entry are separate records, joined by “and”; a condition that tells them apart may be missing. Equal values may be shown once.

Assay [1] concerns the target T1, HCV NS3/4A 1b protease D168A (Hepatitis C virus genotype 1b, UniProt Q9WMX2, D1194A).
T1 construct: 10× stocks of NS3/4A protease enzyme from Bioenza (Mountain View, Calif.); purchased Bioenza (Mountain View, Calif.)
The experiment in a line: HCV protease FRET assay (IC50), Example 15. Conditions: Inhibition (IC50), HCV D168A, FRET, 30 min pre-incubation at 25° C. The format is biochemical. As for the experimental part:
(§1) The following protocol was used to generate IC50 values as depicted for compound 239 in Table 4, above. The protocol is a modified FRET-based assay (v—02) from In Vitro Resistance Studies of HCV Serine Protease Inhibitors, 2004, JBC, vol. 279, No. 17, pp 17508-17514.
(§2) 10× stocks of NS3/4A protease enzyme from Bioenza (Mountain View, Calif.) and 1.13× 5-FAM/QXL™520 FRET peptide substrate from Anaspec (San Jose, Calif.) were prepared in 50 mM HEPES, pH 7.8, 100 mM NaCl, 5 mM DTT and 20% glycerol. 5 μL of each enzyme were pre-incubated in a Corning (#3573) 384-well, black, non-treated microtiter plate (Corning, N.Y.) for 30 min at 25° C. with a 0.5 μL volume of 50% DMSO and serially diluted compounds prepared in 50% DMSO. Protease reactions were started with the addition of 45 μL of the FRET substrate and monitored for 120 minutes at λex487/λem514 through Quad^4 monochromoters in a Synergy^4 plate reader from BioTek (Winooski, Vt.). At the conclusion of each assay, progress curves from each well were examined for linear reaction kinetics and fit statistics (R^2, absolute sum of squares). Initial velocity (0 minutes to 30+ minutes) from each reaction was determined from the slope of a plot of relative fluorescence units vs time (minutes) and then plotted against inhibitor concentration to estimate IC50 from log [Inhibitor] vs Response, Variable Slope model in GraphPad Prism from GraphPad Software (San Diego, Calif.).
(§3) The compound numbers correspond to the compound numbers in Table 3. […] ;

The target of assay [2] is T2, HCV NS3/4A 1b protease wild type (Hepatitis C virus genotype 1b, UniProt Q9WMX2).
T2 construct: 10× stocks of NS3/4A protease enzyme from Bioenza (Mountain View, Calif.); purchased Bioenza (Mountain View, Calif.)
The experiment in a line: HCV protease FRET assay (IC50), Example 15. The format is biochemical. The method, then:
as §1, §2, §3

Assay [3] concerns the target T3, HCV NS3/4A 1b protease A156T (Hepatitis C virus genotype 1b, UniProt Q9WMX2, A1182T).
T3 construct: 10× stocks of NS3/4A protease enzyme from Bioenza (Mountain View, Calif.); purchased Bioenza (Mountain View, Calif.)
The experiment in a line: HCV protease FRET assay (IC50_APP), Example 16. The format is biochemical.

Assay [4] concerns the target T1, HCV NS3/4A 1b protease D168A. The experiment in a line: HCV protease FRET assay (IC50_APP), Example 16. The format is biochemical.
Assay [5] deals with T4, HCV NS3/4A 1b protease R155K (Hepatitis C virus genotype 1b, UniProt Q9WMX2, R1181K).
T4 construct: 10× stocks of NS3/4A protease enzyme from Bioenza (Mountain View, Calif.); purchased Bioenza (Mountain View, Calif.)
The experiment in a line: HCV protease FRET assay (IC50_APP), Example 16. The format is biochemical. The note with it: reaction started immediately after enzyme addition, read-out: Inhibition (apparent IC50, IC50_APP), HCV R155K.

For assay [6], the target named is T2, HCV NS3/4A 1b protease wild type. The experiment in a line: HCV protease FRET assay (IC50_APP), Example 16. The format is biochemical.
Assay [7] concerns HCV RNA replicon in cell line ET (luc-ubi-neo/ET), human Huh7 hepatoma. The experiment in a line: HCV RNA replicon assay, Example 14 Method A. It is filed as cell-based. Conditions: Hepatitis C virus, Huh-7, assay of Example 14, 72 hr. As for the experimental part:
The compounds were assayed to evaluate the antiviral activity and cytotoxicity of compounds in vitro using HCV RNA replicons. This assay used the cell line ET (luc-ubi-neo/ET), which is a human Huh7 hepatoma cell line that contains an HCV RNA replicon with a stable luciferase (Luc) reporter and three cell culture-adaptive mutations. […]
The ET cell line was grown in Dulbecco's modified essential media (DMEM), 10% fetal bovine serum (FBS), 1% penicillin-streptomycin (pen-strep), 1% glutamine, 250 μg/mL G418 in a 5% CO2 incubator at 37° C. All cell culture reagents were obtained from Mediatech (Manassas, Va.). Cells were trypsinized (1% trypsin:EDTA) and plated out at 5×10^3 cells/well in white 96-well assay plates (Costar) dedicated to cell number (cytotoxicity) or antiviral activity assessments. Drugs were added at six 3-fold concentrations each and the assay was run in DMEM, 5% FBS, 1% pen-strep, 1% glutamine. Human interferon alpha-2b (PBL Biolabs, New Brunswick, N.J.) was included in each run as a positive control compound. Cells were processed 72 hr post drug addition when the cells are still subconfluent. Antiviral activity was measured by analyzing replicon-derived luciferase activity using the Steady-Glo Luciferase Assay System (Promega, Madison, Wis.) according to manufacturer's instruction. The number of cells in each well was determined by CytoTox-1 reagent (Promega). Compound profile was derived by calculating applicable EC50 (effective concentration inhibiting virus replication by 50%), EC90 (effective concentration inhibiting virus replication by 90%), IC50 (concentration decreasing cell viability by 50%) and SI50 (selective index: […]) values.
In general terms: In antiviral work, replicon cells carry a viral genome segment that copies itself.

Assay [8] concerns the target T5, HCV NS3/4A mutant A156T protease (Hepatitis C virus genotype 1b, UniProt Q9WMX2, A1182T).
T5 construct: mass spectroscopic analysis of HCV NS3/4A mutant A156T protease in the presence of test compound I-11
The experiment in a line: Mass spectrometric analysis of covalent modification (MALDI-TOF). It is filed as binding. The note with it: 3 hours, 10× excess of compound. The method, then: (§4) As depicted in FIGS. 4, 5, 6, and 7, mass spectrometric analysis of HCV mutants in the presence of compound I-11 was performed. […] 2 ul aliquots of the samples were diluted with 10 ul of 0.1% TFA prior to micro C4 ZipTipping directly onto the MALDI target using Sinapinic acid as the desorption matrix (10 mg/ml in 0.1% TFA:Acetonitrile 50:50). For intact protein mass measurement the instrument was set in linear mode using a pulsed extraction setting of 24,500 and apomyoglobin as the standard to calibrate the instrument.

Assay [9] deals with T6, HCV NS3/4A mutant R155K protease (Hepatitis C virus genotype 1b, UniProt Q9WMX2, R1181K).
T6 construct: mass spectroscopic analysis of HCV NS3/4A mutant R155K protease in the presence of test compound I-11
The assay is described as above. It is filed as binding. The note with it: 3 hours, 10× excess of compound. As for the experimental part: as §4

Assay [10] has as its system HCV RNA replicon in cell line ET (luc-ubi-neo/ET), human Huh7 hepatoma. The experiment in a line: Replicon luciferase assay, Example 26. The format is cell-based. Conditions: Hepatitis C virus, Huh-7, assay of Example 26, 72 hr. As for the experimental part:
The compounds were assayed to evaluate the antiviral activity and cytotoxicity of compounds using replicon-derived luciferase activity. This assay used the cell line ET (luc-ubi-neo/ET), which is a human Huh7 hepatoma cell line that contains an HCV RNA replicon with a stable luciferase (Luc) reporter and cell culture-adaptive mutations. The ET cell line was grown in a 5% CO2 incubator at 37° C. in Dulbecco's modified essential media (DMEM) supplemented with 2 mM L-glutamine, nonessential amino acids, 100 U of penicillin/ml, 100 μg of streptomycin/mL, and 10% fetal bovine serum. G418 (Geneticin; Invitrogen) was added at a final concentration of 400 ug//mL.
All cell culture reagents were obtained from Invitrogen (Carlsbad). Cells were trypsinized (1% trypsin:EDTA) and plated out at 5×10^3 cells/well in white 96-well assay plates (Costar) dedicated to cell number (cytotoxicity) or antiviral activity assessments. Test compounds were added at six 3-fold concentrations each and the assay was run in DMEM, 5% FBS, 1% pen-strep, 1% glutamine, 1% non essential amino acid. Human interferon alpha-2b (PBL Biolabs, New Brunswick, N.J.) was included in each run as a positive control compound. Cells were processed 72 hr post test compound addition when the cells were still subconfluent. Antiviral activity was measured by analyzing replicon-derived luciferase activity using the Steady-Glo Luciferase Assay System (Promega, Madison, Wis.) according to manufacturer's instruction. The number of cells in each well was determined by Cell Titer Blue Assay (Promega). Compound profile was derived by calculating applicable EC50 (effective concentration inhibiting virus replication by 50%), EC90 (effective concentration inhibiting virus replication by 90%), IC50 (concentration decreasing cell viability by 50%) and SI50 (selective index: […]) values.

Assay [11] has as its target T7, NS3 protease self-cleavage in Huh-7-Luc-Neo-ET replicon cells (Hepatitis C virus genotype 1b, UniProt Q9WMX2, E1202G/T1280I).
T7 construct: blotted with polyclonal anti NS3 antibody (Bioenza, Calif.)
The experiment in a line: Inhibition of protease self cleavage in replicon cells (washout). It is filed as cell-based. The method, then: Huh-7-Luc-Neo-ET cells were plated in Replicon Assay Medium (RPMI supplemented with 5% FBS, 1× non-essential amino acids and pen/strep) at a density of 1×10^5 cells/well in 12 well plates. Eight hours later the media was removed and replaced with 1 ml media containing test compound (5 wells per compound) and 0.02% DMSO and the cells were returned to the incubator overnight. Sixteen hours later 1 well from each compound and 1 untreated well were washed with PBS, then lysed and scraped into 30 ul of Cell Extraction Buffer (Biosource, Camarillo, Calif.) plus Complete Protease Inhibitor (Roche, Indianapolis, Ind.). The remaining wells were rinsed 2× with PBS then fed with Replicon Media and returned to the incubator. […]
Cell lysates were separated by SDS-Page (4-20%) and transferred to Immobilon-P PVDF membrane (Millipore Corporation, MA) and blotted with polyclonal anti NS3 antibody (Bioenza, Calif.). Blots were scanned on an Odyssey infrared scanner from Licor and the FL band and cleavage products were quantified separately using the Licor software provided with the scanner. The cleavage product was calculated as a percentage of the total NS3 in each sample and then normalized to the DMSO control so that the DMSO control reflects 100% activity.

In the case of `C=CC(=O)N(C)C[C@H](NC(=O)OC(C)(C)C)C(=O)N1C[C@H](OC(=O)N2Cc3cccc(F)c3C2)C[C@H]1C(=O)N[C@]1(C(=O)NS(=O)(=O)C2CC2)C[C@H]1C=C` [Compound I-11, (3R,5S)-1-((S)-2-(tert-butoxycarbonylamino)-3-(N-methylacrylamido)propanoyl)-5-((1R,2S)-1-(cyclopropylsulfonylcarbamoyl)-2-vinylcyclopropylcarbamoyl)pyrrolidin-3-yl 4-fluoroisoindoline-2-carboxylate], the IC50 is 0.01 to 0.1 µM in [1]; less than 0.01 µM in assay [2]; less than 0.01 µM in assay [3]; 0.01 to 0.1 µM in assay [4]; 0.01 to 0.1 µM in assay [5]; less than 0.01 µM in assay [6]. For the same compound, the IC50 in assay [7] (read-out: Inhibition, Replicon (IC50)) was less than 0.01 µM. The 90% effect concentration (IC90) in assay [7] (read-out: Inhibition, Replicon, IC90 value) fell in the range of 0.01 to 0.1 µM. In addition, in assay [8], the “Conversion of HCV (A156T) mutant to compound adduct” value is reported as “complete conversion”. In [9], the “Conversion of HCV (R155K) mutant to compound adduct” value is “good conversion”.
With `CC(C)(C)OC(=O)N[C@H]1CN(C(=O)CCl)CCC/C=C\[C@@H]2C[C@@]2(C(=O)NS(=O)(=O)C2CC2)NC(=O)[C@@H]2CC(OC(=O)N3Cc4cccc(F)c4C3)CN2C1=O` (some centres unmarked) [Compound I-47], the IC50 in assay [4] is 0.01 to 0.1 µM; in assay [5], 0.01 to 0.1 µM; in assay [6], less than 0.01 µM. The concentration giving a half-maximal response (EC50) in assay [10] (read-out: Inhibition, Replicon, EC50 value) lay in the range of 0.01 to 0.1 µM. Further, the 90% effect concentration (EC90) in assay [10] (read-out: Inhibition, Replicon, EC90 value) was 0.1 to 1 µM. In addition, the “NS3 internal self-cleavage products after treatment of replicon cells” value in assay [11] (16 hours continuous exposure) was “inhibited”.
For `CCC[C@H](NC(=O)[C@@H]1[C@H]2CCC[C@H]2CN1C(=O)[C@@H](NC(=O)[C@@H](NC(=O)c1cnccn1)C1CCCCC1)C(C)(C)C)C(=O)C(=O)NC1CC1` [VX-950], in assay [11] (16 hours incubation, then removed), the “Time to virtually complete return of NS3 self-cleaving activity after drug removal” value was 4 h and 8 h.

A word on the IC50: it is the concentration needed to halve the response being measured. The IC90 is the concentration at which the effect reaches the 90% level. In general, EC50 refers to the concentration needed to bring the measured effect to its halfway point. In general, EC90 refers to the concentration at which the effect reaches the 90% level.
